Legend:
Experiment in all cases: relative viability (nuclei count vs DMSO), 5 days (fraction); higher = more cells survive
VE-821 + Tozasertib = compound: CS(=O)(=O)c1ccc(-c2cnc(N)c(C(=O)Nc3ccccc3)n2)cc1 [VE-821] + Cc1cc(Nc2cc(N3CCN(C)CC3)nc(Sc3ccc(NC(=O)C4CC4)cc3)n2)n[nH]1 [Tozasertib] (partner 0.1 µM)
Summary of the method: (§1)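 Cells from lung cancer lines were seeded into 1536-well plates and, one day later, dosed by pin tool. Treatments were either a single drug or a fixed dose of an anchor drug with five library-drug doses (not always all listed) in √10 steps. After 5 days, nuclei were stained in a one-step fixation (final 0.05% Triton X-100, 1% formaldehyde, 1 ug/ml Hoechst) and counted on 4× images, and relative viability is the treated-to-vehicle nuclei ratio, as the median of duplicate plates.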

Ruxolitinib + Olaparib = compound: N#CC[C@H](C1CCCC1)n1cc(-c2ncnc3[nH]ccc23)cn1 [Ruxolitinib] + O=C(c1cc(Cc2n[nH]c(=O)c3ccccc23)ccc1F)N1CCN(C(=O)C2CC2)CC1 [Olaparib] (partner 8 µM)
Summary of the method: as §1

Ruxolitinib + Bortezomib = compound: N#CC[C@H](C1CCCC1)n1cc(-c2ncnc3[nH]ccc23)cn1 [Ruxolitinib] + CC(C)C[C@H](NC(=O)[C@H](Cc1ccccc1)NC(=O)c1cnccn1)B(O)O [Bortezomib] (partner 0.002 µM)
Summary of the method: as §1

Ruxolitinib + Pictilisib = compound: N#CC[C@H](C1CCCC1)n1cc(-c2ncnc3[nH]ccc23)cn1 [Ruxolitinib] + CS(=O)(=O)N1CCN(Cc2cc3nc(-c4cccc5[nH]ncc45)nc(N4CCOCC4)c3s2)CC1 [Pictilisib] (partner 1 µM)
Summary of the method: as §1

Row | Cell Line | relative viability (VE-821 + Tozasertib; first compound 0.08 µM) | relative viability (VE-821 + Tozasertib; first compound 0.253 µM) | relative viability (VE-821 + Tozasertib; first compound 0.8 µM) | relative viability (VE-821 + Tozasertib; first compound 2.53 µM) | relative viability (VE-821 + Tozasertib; first compound 8 µM) | relative viability (Ruxolitinib + Olaparib; first compound 0.08 µM) | relative viability (Ruxolitinib + Olaparib; first compound 0.253 µM) | relative viability (Ruxolitinib + Olaparib; first compound 0.8 µM) | relative viability (Ruxolitinib + Olaparib; first compound 2.53 µM) | relative viability (Ruxolitinib + Olaparib; first compound 8 µM) | relative viability (Ruxolitinib + Bortezomib; first compound 0.253 µM) | relative viability (Ruxolitinib + Bortezomib; first compound 0.8 µM) | relative viability (Ruxolitinib + Bortezomib; first compound 2.53 µM) | relative viability (Ruxolitinib + Bortezomib; first compound 8 µM) | relative viability (Ruxolitinib + Pictilisib; first compound 0.253 µM) | relative viability (Ruxolitinib + Pictilisib; first compound 0.8 µM) | relative viability (Ruxolitinib + Pictilisib; first compound 2.53 µM) | relative viability (Ruxolitinib + Pictilisib; first compound 8 µM) | relative viability (Ruxolitinib + Bortezomib; first compound 0.08 µM) | relative viability (Ruxolitinib + Pictilisib; first compound 0.08 µM)
1 | NCI-H1650 | 0.457 | 0.416 | 0.278 | 0.299 | 0.208 | 0.689 | 0.784 | 0.879 | 0.836 | 0.751 | 0.185 | 0.188 | 0.18 | 0.195 | 0.608 | 0.734 | 0.551 | 0.645 | – | –
2 | NCI-H2023 | 0.401 | 0.297 | 0.129 | 0.107 | 0.0977 | 0.483 | 0.604 | 0.509 | 0.515 | 0.339 | 0.928 | 1.43 | 0.844 | 1.01 | 0.188 | 0.247 | 0.215 | 0.228 | 1.13 | 0.251
3 | SK-LU-1 | 0.383 | 0.286 | 0.274 | 0.208 | 0.193 | 0.428 | 0.456 | 0.572 | 0.381 | 0.359 | 1.07 | 1.3 | 1.03 | 0.936 | 0.723 | 0.538 | 0.607 | 0.638 | 0.465 | 0.657
4 | NCI-H2347 | 0.506 | 0.6 | 0.272 | 0.498 | 0.506 | 0.527 | 0.627 | 0.644 | 0.599 | 0.572 | 0.907 | 0.931 | 0.917 | 1.2 | 0.637 | 0.554 | 0.485 | 0.674 | – | 0.437
5 | NCI-H727 | 0.601 | 0.633 | 0.505 | 0.67 | 0.488 | 0.715 | 0.8 | 0.603 | 0.826 | 0.645 | 0.845 | 1.14 | 0.941 | 1.07 | 0.384 | 0.6 | 0.309 | 0.725 | 0.997 | 0.427
6 | COR-L23 | 0.195 | 0.168 | 0.131 | 0.142 | 0.14 | 0.369 | 0.371 | 0.376 | 0.329 | 0.272 | 1.03 | 1.06 | 0.9 | 0.758 | 0.748 | 0.795 | 0.625 | 0.531 | 1.16 | 0.755
7 | NCI-H1703 | – | – | – | – | – | 0.44 | 0.439 | 0.55 | 0.237 | 0.315 | 0.38 | 0.346 | 0.338 | 0.245 | 0.265 | 0.232 | 0.24 | 0.205 | 0.412 | 0.255
8 | NCI-H358 | 0.12 | 0.105 | 0.0999 | 0.0895 | 0.0895 | 0.494 | 0.544 | 0.534 | 0.495 | 0.442 | – | – | – | – | 0.343 | 0.342 | 0.268 | 0.265 | – | 0.413
9 | NCI-H1395 | 0.765 | 0.716 | 0.671 | 0.703 | 0.762 | 0.44 | 0.419 | 0.456 | 0.443 | 0.476 | – | – | – | – | 0.553 | 0.645 | 0.584 | 0.601 | – | –
10 | NCI-H1648 | 0.415 | 0.608 | 0.518 | 0.61 | 0.345 | 0.854 | 0.852 | 1.11 | 1.35 | 1.18 | – | – | – | – | – | – | – | – | – | –
11 | A549 | – | – | – | – | – | 0.226 | 0.36 | 0.35 | 0.331 | 0.0796 | – | – | – | – | 0.529 | 0.576 | 0.407 | 0.233 | – | 0.579
12 | NCI-H1563 | – | – | – | – | – | – | – | – | – | – | 0.867 | 0.97 | 0.833 | 0.788 | 0.669 | 0.691 | 0.623 | 0.661 | 0.992 | 0.653
13 | NCI-H2170 | 0.744 | 0.727 | 0.662 | 0.794 | 0.477 | 0.584 | 0.686 | 0.592 | 0.579 | 0.5 | – | – | – | – | 0.28 | 0.418 | 0.303 | 0.253 | – | 0.36
14 | NCI-H1623 | 0.481 | 0.404 | 0.398 | 0.463 | 0.364 | – | – | – | – | – | – | – | – | – | – | – | – | – | – | –
15 | SK-MES-1 | 0.968 | 0.818 | 0.828 | 0.561 | 0.325 | 0.766 | 0.639 | 0.713 | 0.563 | 0.597 | – | – | – | – | 0.337 | 0.359 | 0.394 | 0.335 | – | 0.268
16 | NCI-H1944 | 0.285 | 0.253 | 0.219 | 0.231 | 0.193 | 0.431 | 0.426 | 0.428 | 0.399 | 0.448 | – | – | – | – | 0.334 | 0.381 | 0.323 | 0.332 | – | 0.362
17 | IA-LM | – | – | – | – | – | 0.98 | 0.867 | 0.805 | 0.819 | 0.669 | 0.931 | 0.971 | 0.917 | 0.61 | 0.35 | 0.387 | 0.544 | 0.46 | 0.998 | 0.349
18 | NCI-H522 | 0.633 | 0.63 | 0.537 | 0.453 | 0.575 | 0.632 | 0.719 | 0.704 | 0.468 | 0.705 | – | – | – | – | – | – | – | – | – | –
19 | EBC-1 | – | – | – | – | – | 0.718 | 0.726 | 0.77 | 0.708 | 0.533 | 0.49 | 0.597 | 0.42 | 0.361 | 0.309 | 0.583 | 0.353 | 0.32 | 0.592 | 0.386
20 | Calu-6 | – | – | – | – | – | 0.575 | 0.62 | 0.577 | – | 0.39 | 0.93 | 1.18 | 0.921 | 0.557 | 0.943 | 0.958 | 0.828 | 0.667 | 1.02 | 0.99
21 | NCI-H1793 | 0.323 | 0.257 | 0.182 | 0.234 | 0.159 | 0.769 | 0.8 | 1.07 | 0.89 | 0.706 | – | – | – | – | 0.409 | 0.25 | 0.38 | 0.282 | – | 0.311
22 | NCI-H1792 | – | – | – | – | – | 0.303 | 0.44 | 0.377 | 0.384 | 0.236 | 0.905 | 0.911 | 0.834 | 0.774 | 0.289 | 0.278 | 0.197 | 0.214 | 0.957 | 0.259

— the supplement of paper PMC10307832
